Earlier results in patent publication US11638760B2, “Pyrrolobenzodiazepine antibody conjugates” (priority 2017, dated 2023).

Conditions: Phase I clinical evaluation

C=C1C[C@H]2C=Nc3cc(OCCCOc4cc5c(cc4OC)C(=O)N4CC(=C)C[C@H]4C=N5)c(OC)cc3C(=O)N2C1 [SJG-136]
maximum tolerated dose: 45 μg/m
